Laboratory results as given in PubChem BioAssay (NCI).
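Five concentrations, 48 hours, 96-well plates. GI50 = concentration required for 50% inhibition of growth. TGI denotes the concentration required for complete inhibition of growth.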

Columns and labels:
Test in all cases: NCI-60 cell line screen, 48 h
NCI-H226 lung = tested on: NCI-H226 lung
NCI-H23 lung = tested on: NCI-H23 lung
NCI-H460 lung = tested on: NCI-H460 lung
NCI-H522 lung = tested on: NCI-H522 lung
NCI/ADR-RES ovarian = tested on: NCI/ADR-RES ovarian
OVCAR-3 ovarian = tested on: OVCAR-3 ovarian
OVCAR-4 ovarian = tested on: OVCAR-4 ovarian
OVCAR-5 ovarian = tested on: OVCAR-5 ovarian
OVCAR-8 ovarian = tested on: OVCAR-8 ovarian
PC-3 prostate = tested on: PC-3 prostate
RPMI-8226 leukemia = tested on: RPMI-8226 leukemia
RXF 393 renal = tested on: RXF 393 renal
SF-268 CNS = tested on: SF-268 CNS
SF-295 CNS = tested on: SF-295 CNS
SK-MEL-28 melanoma = tested on: SK-MEL-28 melanoma
SK-MEL-5 melanoma = tested on: SK-MEL-5 melanoma
SK-OV-3 ovarian = tested on: SK-OV-3 ovarian
SN12C renal = tested on: SN12C renal
SNB-19 CNS = tested on: SNB-19 CNS
SNB-75 CNS = tested on: SNB-75 CNS
SR leukemia = tested on: SR leukemia
SW-620 colon = tested on: SW-620 colon
TK-10 renal = tested on: TK-10 renal
U251 CNS = tested on: U251 CNS
UACC-257 melanoma = tested on: UACC-257 melanoma
UACC-62 melanoma = tested on: UACC-62 melanoma
UO-31 renal = tested on: UO-31 renal

## Cc1cc(NN=C(c2ccc(O)cc2)c2ccc(O)cc2)c([N+](=O)[O-])cc1[N+](=O)[O-]
NCI-H226 lung
  GI50: 7.76 µM
  TGI: 40.1 µM
NCI-H23 lung
  GI50: 3.8 µM
  TGI: 47.3 µM
NCI-H460 lung
  GI50: 2620 nM
  TGI: 8.57 µM
NCI-H522 lung
  GI50: 1080 nM
  TGI: 11.4 µM
NCI/ADR-RES ovarian
  GI50: 3.75 µM
  TGI: > 100 µM
OVCAR-3 ovarian
  GI50: 4.14 µM
  TGI: 19.4 µM
OVCAR-4 ovarian
  GI50: 6.38 µM
  TGI: > 100 µM
OVCAR-5 ovarian
  GI50: 11.1 µM
  TGI: 36.6 µM
OVCAR-8 ovarian
  GI50: 4.08 µM
  TGI: > 100 µM
PC-3 prostate
  GI50: 3.23 µM
RPMI-8226 leukemia
  GI50: 1320 nM
  TGI: 4.16 µM
RXF 393 renal
  GI50: 1790 nM
  TGI: 6.56 µM
SF-268 CNS
  GI50: 5.34 µM
  TGI: 57.3 µM
SF-295 CNS
  GI50: 4.91 µM
  TGI: 22.2 µM
SK-MEL-28 melanoma
  GI50: 5.59 µM
  TGI: 21.2 µM
SK-MEL-5 melanoma
  GI50: 308 nM
  TGI: 3.74 µM
SK-OV-3 ovarian
  GI50: 2980 nM
  TGI: 19.9 µM
SN12C renal
  GI50: 6.79 µM
  TGI: 24.7 µM
SNB-19 CNS
  TGI: 935 nM
SNB-75 CNS
  GI50: 6.84 µM
  TGI: 60.5 µM
SR leukemia
  GI50: 5.55 µM
  TGI: 50.2 µM
SW-620 colon
  GI50: 8.83 µM
  TGI: 45.6 µM
TK-10 renal
  GI50: 4.53 µM
  TGI: 37.5 µM
U251 CNS
  GI50: 5.39 µM
  TGI: 81.2 µM
UACC-257 melanoma
  GI50: 4.71 µM
  TGI: 8.29 µM
UACC-62 melanoma
  GI50: 4.77 µM
  TGI: 19.3 µM
UO-31 renal
  GI50: 4.02 µM
  TGI: 23.7 µM
